Experimental data taken from patent US8436043B2 (Takeda Pharmaceutical Company Limited, priority 2008, dated 2013).

The molecules below were run against T1, human glucagon receptor (Homo sapiens, UniProt P47871) (assay: Glucagon binding inhibitory activity ([125I]-glucagon binding to glucagon receptor membrane protein)). Conditions: test compound 10 μM; 0.4% DMSO = 0%, non-labeled glucagon 1 μM = 100%.
T1 construct: made in house; host or cells: FreeStyle CHO cells, transient transfection with pMSRαneo/hGCGR; membrane fraction (35,000 rpm pellet)
T1 sequence (P47871 26-477): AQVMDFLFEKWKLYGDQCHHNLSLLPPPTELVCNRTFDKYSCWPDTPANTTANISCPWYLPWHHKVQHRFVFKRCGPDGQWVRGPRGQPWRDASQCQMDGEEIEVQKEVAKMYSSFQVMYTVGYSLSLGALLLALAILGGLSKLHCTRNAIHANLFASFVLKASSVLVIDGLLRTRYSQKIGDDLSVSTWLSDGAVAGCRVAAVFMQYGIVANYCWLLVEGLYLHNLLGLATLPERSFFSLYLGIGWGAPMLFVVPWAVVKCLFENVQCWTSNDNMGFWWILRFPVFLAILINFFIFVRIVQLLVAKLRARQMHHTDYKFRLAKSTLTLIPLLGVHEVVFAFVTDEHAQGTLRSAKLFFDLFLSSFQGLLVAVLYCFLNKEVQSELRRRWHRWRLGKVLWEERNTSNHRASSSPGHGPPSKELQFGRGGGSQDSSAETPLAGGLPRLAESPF
How it was run: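 Receptor source was a membrane fraction of transiently transfected CHO cells bearing human receptor; 90 min room-temperature binding, filtration harvest, scintillation counting.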

inhibitory rate (%) at 10 μM	SMILES
82%	COc1ccc2oc(C(Nc3ccc(C(=O)N(C)CCC(=O)O)cc3)C3CCCCC3)c(C)c2c1 (stereo not shown) [Example A44, 3-{[(4-{[cyclohexyl(5-methoxy-3-methyl-1-benzofuran-2-yl)methyl]amino}phenyl)carbonyl](methyl)amino}propanoic acid]
79%	Cc1c(C(Nc2ccc(C(=O)N(C)CCC(=O)O)cc2)C2CCCC2)sc2ccccc12 (stereo not shown) [Example A65, 3-{[(4-{[cyclopentyl(3-methyl-1-benzothiophen-2-yl)methyl]amino}phenyl)carbonyl](methyl)amino}propanoic acid]

Same assay, conditions: test compound 10 μM; 0.4% DMSO = 0%, non-labeled glucagon 1 μM = 100%; read-out: inhibitory rate (%) at 10 μM

SMILES	inhibition at 10 µM
Cc1nn(-c2ccccc2)cc1C(Nc1ccc(C(=O)NCCC(=O)O)cc1)C1CCCCC1 (stereo not shown) [Example 17, 3-{[(4-{[cyclohexyl(3-methyl-1-phenyl-1H-pyrazol-4-yl)methyl]amino}phenyl)carbonyl]amino}propanoic acid]	80%
CC(C)Oc1nn(-c2ccc(OC(F)(F)F)cc2)cc1C(Nc1ccc(C(=O)N(C)CCC(=O)O)cc1)C1CCCCC1 (stereo not shown) [Example 65, 3-[({4-[(cyclohexyl{3-(1-methylethoxy)-1-[4-(trifluoromethoxy)phenyl]-1H-pyrazol-4-yl}methyl)amino]phenyl}carbonyl)(methyl)amino]propanoic acid]	64%
Cc1nn(-c2ccc(C(F)(F)F)cn2)cc1C(Nc1ccc(C(=O)N(C)CCC(=O)O)cc1)C1CCCCC1 (stereo not shown) [Example 2, 3-[({4-[(cyclohexyl{3-methyl-1-[5-(trifluoromethyl)pyridin-2-yl]-1H-pyrazol-4-yl}methyl)amino]phenyl}carbonyl)(methyl)amino]propanoic acid]	72%
COc1cccc(-n2cc(C(Nc3ccc(C(=O)N(C)CCC(=O)O)cc3)C3CCCCC3)c(C(C)C)n2)c1 (stereo not shown) [Example 79, 3-[{[4-({cyclohexyl[1-(3-methoxyphenyl)-3-(1-methylethyl)-1H-pyrazol-4-yl]methyl}amino)phenyl]carbonyl}(methyl)amino]propanoic acid]	67%
COCc1nn(-c2ccc(OC)cc2)cc1C(Nc1ccc(C(=O)N(C)CCC(=O)O)cc1)C1CCCCC1 (stereo not shown) [Example 36, 3-[{[4-({cyclohexyl[3-(methoxymethyl)-1-(4-methoxyphenyl)-1H-pyrazol-4-yl]methyl}amino)phenyl]carbonyl}(methyl)amino]propanoic acid]	69%
Cc1sc2ccccc2c1C(Nc1ccc(C(=O)NCCC(=O)O)cc1)C1CCCCC1 (stereo not shown) [Example A8, 3-{[(4-{[cyclohexyl(2-methyl-1-benzothiophen-3-yl)methyl]amino}phenyl)carbonyl]amino}propanoic acid]	78%
CN(CCC(=O)O)C(=O)c1ccc(NC(c2cc3ccccc3s2)C2CCCCC2)cc1 (stereo not shown) [Example A5, 3-{[(4-{[1-benzothiophen-2-yl(cyclohexyl)methyl]amino}phenyl)carbonyl](methyl)amino}-propanoic acid]	77%
Cc1c(C(Nc2ccc(C(=O)N(C)CCC(=O)O)nc2)C2CCCCC2)sc2ccccc12 (stereo not shown) [Example A59, 3-{[(5-{[cyclohexyl(3-methyl-1-benzothiophen-2-yl)methyl]amino}pyridin-2-yl)carbonyl](methyl)amino}propanoic acid]	77%
Cc1c(C(Nc2ccc(C(=O)N(C)CCC(=O)O)cc2)C2CCCCC2)oc2ccc(F)cc12 (stereo not shown) [Example A37, 3-{[(4-{[cyclohexyl(5-fluoro-3-methyl-1-benzofuran-2-yl)methyl]amino}phenyl)carbonyl](methyl)amino}propanoic acid]	78%
COc1ccc(-n2cc(C(Nc3ccc(C(=O)N(C)CCC(=O)O)cc3)C3CCCCC3)c(C)n2)cc1 (stereo not shown) [Example 24, 3-[{[4-({cyclohexyl[1-(4-methoxyphenyl)-3-methyl-1H-pyrazol-4-yl]methyl}amino)phenyl]carbonyl}(methyl)amino]propanoic acid]	73%
COCc1nn(-c2ccccc2)cc1C(Nc1ccc(C(=O)NCCC(=O)O)cc1)C1CCCCC1 (stereo not shown) [Example 37, 3-({[4-({cyclohexyl[3-(methoxymethyl)-1-phenyl-1H-pyrazol-4-yl]methyl}amino)phenyl]carbonyl}amino)propanoic acid]	70%
Cc1nn(-c2ccc(C(F)(F)F)cc2)cc1C(Nc1ccc(C(=O)N(C)CCC(=O)O)cc1)C1CCCCC1 (stereo not shown) [Example 28, 3-[({4-[(cyclohexyl{3-methyl-1-[4-(trifluoromethyl)phenyl]-1H-pyrazol-4-yl}methyl)amino]phenyl}carbonyl)(methyl)amino]propanoic acid]	71%
Cc1c(C(Nc2ccc(C(=O)N(C)CCC(=O)O)nc2)C2CCCCC2)oc2ccc(F)cc12 (stereo not shown) [Example A56, 3-{[(5-{[cyclohexyl(5-fluoro-3-methyl-1-benzofuran-2-yl)methyl]amino}pyridin-2-yl)carbonyl](methyl)amino}propanoic acid]	76%

Next, values leading:

inhibition at 10 µM	SMILES
76%	Cc1c(C(Nc2ccc(C(=O)NCCC(=O)O)cc2)C2CCCCC2)oc2cc(F)ccc12 (stereo not shown) [Example A96, 3-{[(4-{[cyclohexyl(6-fluoro-3-methyl-1-benzofuran-2-yl)methyl]amino}phenyl)carbonyl]amino}propanoic acid]
79%	Cc1ccc2oc(C(Nc3ccc(C(=O)N(C)CCC(=O)O)cc3)C3CCCCC3)c(C)c2c1 (stereo not shown) [Example A91, 3-{[(4-{[cyclohexyl(3,5-dimethyl-1-benzofuran-2-yl)methyl]amino}phenyl)carbonyl](methyl)amino}propanoic acid]
66%	COc1ccc2oc(C(Nc3ccc(C(=O)N(C)CCC(=O)O)cc3)C3CCCCC3)c(Br)c2c1 (stereo not shown) [Example A103, 3-{[(4-{[(3-bromo-5-methoxy-1-benzofuran-2-yl)(cyclohexyl)methyl]amino}phenyl)carbonyl](methyl)amino}-propanoic acid]
58%	COc1ccc2oc(C(Nc3ccc(C(=O)NCCC(=O)O)cc3)C3CCCCC3)c(C#N)c2c1 (stereo not shown) [Example A108, 3-{[(4-{[(3-cyano-5-methoxy-1-benzofuran-2-yl)(cyclohexyl)methyl]amino}phenyl)carbonyl]amino}propanoic acid]
75%	COc1c(C(Nc2ccc(C(=O)N(C)CCC(=O)O)cc2)C2CCCCC2)oc2ccc(F)cc12 (stereo not shown) [Example A214, 3-{[(4-{[cyclohexyl(5-fluoro-3-methoxy-1-benzofuran-2-yl)methyl]amino}phenyl)carbonyl](methyl)amino}propanoic acid]
86%	Cc1c(C(Nc2ccc(C(=O)NCCC(=O)O)cc2)C2CCCCC2)oc2ccc(OCc3ccnc(F)c3)cc12 (stereo not shown) [Example A167, 3-[({4-[(cyclohexyl{5-[(2-fluoropyridin-4-yl)methoxy]-3-methyl-1-benzofuran-2-yl}methyl)amino]phenyl}carbonyl)amino]propanoic acid]
84%	Cc1c(C(Nc2ccc(C(=O)N(C)CCC(=O)O)cc2)C2CCCC2)sc2ccccc12 (stereo not shown) [Example A64, 3-{[(4-{[cyclopentyl(3-methyl-1-benzothiophen-2-yl)methyl]amino}phenyl)carbonyl](methyl)amino}propanoic acid]
87%	Cc1c(C(Nc2ccc(C(=O)N(C)CCC(=O)O)cc2)C2CCCCC2)oc2ccc(OCC3(C)COC3)cc12 (stereo not shown) [Example A196, 3-[({4-[(cyclohexyl{3-methyl-5-[(3-methyloxetan-3-yl)methoxy]-1-benzofuran-2-yl}methyl)amino]phenyl}carbonyl)(methyl)amino]propanoic acid]
90%	Cc1c(C(Nc2ccc(C(=O)NCCC(=O)O)cc2)C2CCCC2)sc2ccccc12 (stereo not shown) [Example A63, 3-{[(4-{[cyclopentyl(3-methyl-1-benzothiophen-2-yl)methyl]amino}phenyl)carbonyl]amino}propanoic acid]
81%	Cc1c(C(Nc2ccc(C(=O)NCCC(=O)O)nc2)C2CCCCC2)sc2ccccc12 (stereo not shown) [Example A62, 3-{[(5-{[cyclohexyl(3-methyl-1-benzothiophen-2-yl)methyl]amino}pyridin-2-yl)carbonyl]amino}propanoic acid]
88%	Cc1cc(COc2ccc3oc(C(Nc4ccc(C(=O)N(C)CCC(=O)O)cc4)C4CCCCC4)c(C)c3c2)no1 (stereo not shown) [Example A194, 3-[({4-[(cyclohexyl{3-methyl-5-[(5-methylisoxazol-3-yl)methoxy]-1-benzofuran-2-yl}methyl)amino]phenyl}carbonyl)(methyl)amino]propanoic acid]
83%	CCCCCCC(Nc1ccc(C(=O)NCCC(=O)O)cc1)c1cc2cc(Cl)ccc2n1C (stereo not shown) [Example A140, 3-{[(4-{[1-(5-chloro-1-methyl-1H-indol-2-yl)heptyl]amino}phenyl)carbonyl]amino}propanoic acid]
76%	Cc1c(C(Nc2ccc(C(=O)N(C)CCC(=O)O)cc2)C2CCCCC2)oc2cc(F)ccc12 (stereo not shown) [Example A97]
83%	Cc1c(C(Nc2ccc(C(=O)N(C)CCC(=O)O)cc2)C2CCCC2)oc2c(F)cc(F)cc12 (stereo not shown) [Example A208, 3-{[(4-{[cyclopentyl(5,7-difluoro-3-methyl-1-benzofuran-2-yl)methyl]amino}phenyl)carbonyl](methyl)amino}propanoic acid]
76%	Cc1c(C(Nc2ccc(C(=O)N(C)CCC(=O)O)cc2)C2CCCCC2)oc2ccc(NS(=O)(=O)c3ccccc3)cc12 (stereo not shown) [Example A130, 3-[({4-[(cyclohexyl{3-methyl-5-[(phenylsulfonyl)amino]-1-benzofuran-2-yl}methyl)amino]phenyl}carbonyl)(methyl)amino]propanoic acid]
88%	Cc1c(C(Nc2ccc(C(=O)N(C)CCC(=O)O)cc2)C2CCCCC2)oc2ccc(-c3cnn(C)c3)cc12 (stereo not shown) [Example A181, 3-[{[4-({cyclohexyl[3-methyl-5-(1-methyl-1H-pyrazol-4-yl)-1-benzofuran-2-yl]methyl}amino)phenyl]carbonyl}(methyl)amino]propanoic acid]
